How the values were obtained:
[1] = tested on: SLE prone mice (NZB×NZW) F1 or MRL/lpr/lpr; conditions: Eilat et al., 2000 and 2001; cited from earlier work
PBL of SLE patients = test: Proliferative response of PBL of SLE patients to the human 16/6Id mAb; type: cell-based; conditions: PBL of one SLE patient; FIG. 6
Method: (§1) Induction and treatment of experimental SLE. In order to induce experimental SLE, BALB/c mice were immunized with 1-2 μg of the human mAb 16/6Id and boosted 3 weeks later. For the prevention of experimental SLE, mice were given hCDR1 or hCDR3 (mCDR1 or revmCDR1 as control peptide in Example 12) intravenously (i.v.) or s.c. concomitant with the immunization, and were injected weekly thereafter for 5 weeks. Treatment of an established disease started three and a half months following disease induction with the 16/6Id, when clinical manifestations were already observed. In Example 12, mice received 10 weekly injections (i.v. or s.c.) of mCDR1 or revmCDR1 at a dose of 100 μg/mouse. Prevention and treatment of SLE-like disease in (NZB×NZW)F1 mice with the hCDR1 or mCDR1 peptide. For prevention of SLE, mice at the age of 2 months, before disease manifestations are observed, were injected s.c. with hCDR1 (or mCDR1 in Example 12, 250 μg/mouse) once a week for 10 weeks. To treat an established disease, mice at the age of 5-7 months were injected with hCDR1 (in Example 12, mCDR1 s.c., 250 μg/mouse) once a week for 10 weeks. Proliferative Responses. PBL were isolated from heparinized venous blood by Ficoll-Hypaque (Pharmacia) density-gradient centrifugation. All assays were performed, in triplicate, in flat-bottomed microtiter plates (Falcon, Becton Dickinson, Oxmard, Calif., USA) in which 2×10^5 PBL were cultured in enriched RPMI-1640 as described (Dayan et al., 2000). The PBL were exposed to various concentrations (0.1-40 μg/well) of the human anti-DNA 16/6Id mAb with and without the addition of the various CDR-based peptides at a concentration of at least 10-fold excess over that of the 16/6Id. Phytohemagglutinin (PHA; 2 μg/well) was used as a control for culture conditions at each experiment. The cultures were incubated in 7.5% CO2 at 37° C. for 6 days. Eighteen hours before the cells were harvested, [^3H]-thymidine (0.5μ Ci of 5 Ci/mmol) (Nuclear Research Center, Negev, Israel) was added to all cultures. Results are expressed as the mean thymidine incorporation in counts per minute (CPM) of triplicate culture±SD, or as stimulation index (S.I.; the ratio of mean CPM at the optimal concentration of the human 16/6Id to the mean CPM in the presence of medium alone). A S.I.≧2 was considered a positive response (Dayan et al., 2000). Inhibition (the ratio of mean CPM in the presence of the 16/6Id and various CDR-based peptides to the mean CPM with the 16/6Id without the CDR-based peptide) above 50% was considered positive. Induction of Cytokine Production. Mice that were immunized with the human 16/6Id mAb and either treated or not with the CDR-based peptide, were killed at different periods during or after treatment with the peptide. Splenocytes and lymph node cells (LNC) were harvested and incubated (5×10^6/ml) in the presence of the 16/6Id. Supernatants were collected after 48 and 72 h. Assessment of Cytokines in the Supernatants. Supernatants were collected 48 hours following the initiation of the cultures and stored at −70° C. Measurements of IL-2, IL-10, IFN-γ, and TNF-α were performed by ELISA by using the relevant standards, capture and detecting Abs (Pharmingen) according to the manufacturer's instructions. TGF-β was determined by an ELISA. Briefly, plates were coated with the recombinant human TGF-β1 sRIII/Fc chimera (R & D Systems Inc., Minneapolis, Minn., USA), and the second Ab used was the biotinylated anti-human TGF-β1 antibody (R & D Systems Inc.). The substrate solution used was TMB color Reagent (Helix Diagnostics, West Sacramento, Calif.), and enzyme activity was evaluated by using 570- and 630-nm filters. Detection of SLE-Associated Clinical and Pathological Manifestations. Proteinuria was measured semiquantitatively by using Combistix kit (Ames Division, Bayer Diagnostics, Newbury, U.K.). White blood cells (WBC, for leukopenia) were counted after a 10-fold dilution of heparinized blood in distilled water containing 1% acetic acid (vol/vol). […]

T cell priming = conditions: administered in PBS; Waisman et al., 1997; cited from earlier work
MMP-9 [2] = test: MMP-9 activity in sera of 16/6Id immunized BALB/c mice; type: in vivo
Method: (§2) Induction and treatment of experimental SLE. In order to induce experimental SLE, BALB/c mice were immunized with 1-2 μg of the human mAb 16/6Id and boosted 3 weeks later. For the prevention of experimental SLE, mice were given hCDR1 or hCDR3 (mCDR1 or revmCDR1 as control peptide in Example 12) intravenously (i.v.) or s.c. concomitant with the immunization, and were injected weekly thereafter for 5 weeks. Treatment of an established disease started three and a half months following disease induction with the 16/6Id, when clinical manifestations were already observed. In Example 12, mice received 10 weekly injections (i.v. or s.c.) of mCDR1 or revmCDR1 at a dose of 100 μg/mouse. Prevention and treatment of SLE-like disease in (NZB×NZW)F1 mice with the hCDR1 or mCDR1 peptide. For prevention of SLE, mice at the age of 2 months, before disease manifestations are observed, were injected s.c. with hCDR1 (or mCDR1 in Example 12, 250 μg/mouse) once a week for 10 weeks. To treat an established disease, mice at the age of 5-7 months were injected with hCDR1 (in Example 12, mCDR1 s.c., 250 μg/mouse) once a week for 10 weeks. Proliferative Responses. PBL were isolated from heparinized venous blood by Ficoll-Hypaque (Pharmacia) density-gradient centrifugation. […] Results are expressed as the mean thymidine incorporation in counts per minute (CPM) of triplicate culture±SD, or as stimulation index (S.I.; the ratio of mean CPM at the optimal concentration of the human 16/6Id to the mean CPM in the presence of medium alone). […] TGF-β was determined by an ELISA. […] The substrate solution used was TMB color Reagent (Helix Diagnostics, West Sacramento, Calif.), and enzyme activity was evaluated by using 570- and 630-nm filters. […] Proteinuria was measured semiquantitatively by using Combistix kit (Ames Division, Bayer Diagnostics, Newbury, U.K.). White blood cells (WBC, for leukopenia) were counted after a 10-fold dilution of heparinized blood in distilled water containing 1% acetic acid (vol/vol). […]

MMP-9 [3] = test: MMP-9 activity in sera of (NZB×NZW)F1 mice (gel zymography); type: in vivo
Method: as §1, with “A S.I.≧2 was considered a positive response (Dayan et al., 2000). Inhibition (the ratio of mean CPM in the presence of the 16/6Id and various CDR-based peptides to the mean CPM with the 16/6Id without the CDR-based peptide) above 50% was considered positive. Induction of Cytokine Production. Mice that were immunized with the human 16/6Id mAb and either treated or not with the CDR-based peptide, were killed at different periods during or after treatment with the peptide. Splenocytes and lymph node cells (LNC) were harvested and incubated (5×10^6/ml) in the presence of the 16/6Id. Supernatants were collected after 48 and 72 h. Assessment of Cytokines in the Supernatants. Supernatants were collected 48 hours following the initiation of the cultures and stored at −70° C. Measurements of IL-2, IL-10, IFN-γ, and TNF-α were performed by ELISA by using the relevant standards, capture and detecting Abs (Pharmingen) according to the manufacturer's instructions.” left out, “Briefly, plates were coated with the recombinant human TGF-β1 sRIII/Fc chimera (R & D Systems Inc., Minneapolis, Minn., USA), and the second Ab used was the biotinylated anti-human TGF-β1 antibody (R & D Systems Inc.).” left out, “Detection of SLE-Associated Clinical and Pathological Manifestations.” left out

MMP-3 [4] = test: MMP-3 levels in sera of 16/6Id immunized BALB/c mice (Western blot); type: in vivo; conditions: prevention and treatment protocols, 100 μg/mouse; FIG. 21A
Method: as §2, with “peptide.” for “peptide. For prevention of SLE, mice at the age of 2 months, before disease manifestations are observed, were injected s.c. with hCDR1 (or mCDR1 in Example 12, 250 μg/mouse) once a week for 10 weeks. To treat an established disease, mice at the age of 5-7 months were injected with hCDR1 (in Example 12, mCDR1 s.c., 250 μg/mouse) once a week for 10 weeks. Proliferative Responses. PBL were isolated from heparinized venous blood by Ficoll-Hypaque (Pharmacia) density-gradient centrifugation.”, “U.K.).” for “U.K.). White blood cells (WBC, for leukopenia) were counted after a 10-fold dilution of heparinized blood in distilled water containing 1% acetic acid (vol/vol).”

MMP-9 [5] = test: MMP-9 immunostaining of kidney sections of 16/6Id immunized BALB/c mice; type: in vivo; conditions: prevention and treatment experiments; glomeruli and interstitium; FIG. 22
Method: as §2, with “peptide.” for “peptide. For prevention of SLE, mice at the age of 2 months, before disease manifestations are observed, were injected s.c. with hCDR1 (or mCDR1 in Example 12, 250 μg/mouse) once a week for 10 weeks. To treat an established disease, mice at the age of 5-7 months were injected with hCDR1 (in Example 12, mCDR1 s.c., 250 μg/mouse) once a week for 10 weeks. Proliferative Responses. PBL were isolated from heparinized venous blood by Ficoll-Hypaque (Pharmacia) density-gradient centrifugation.”, “U.K.).” for “U.K.). White blood cells (WBC, for leukopenia) were counted after a 10-fold dilution of heparinized blood in distilled water containing 1% acetic acid (vol/vol).”

MMP-3 [6] = test: MMP-3 immunostaining of kidney sections of 16/6Id immunized BALB/c mice; type: in vivo; conditions: prevention and treatment experiments; glomeruli and interstitium; FIG. 22
Method: as §2, with “peptide.” for “peptide. For prevention of SLE, mice at the age of 2 months, before disease manifestations are observed, were injected s.c. with hCDR1 (or mCDR1 in Example 12, 250 μg/mouse) once a week for 10 weeks. To treat an established disease, mice at the age of 5-7 months were injected with hCDR1 (in Example 12, mCDR1 s.c., 250 μg/mouse) once a week for 10 weeks. Proliferative Responses. PBL were isolated from heparinized venous blood by Ficoll-Hypaque (Pharmacia) density-gradient centrifugation.”, “U.K.).” for “U.K.). White blood cells (WBC, for leukopenia) were counted after a 10-fold dilution of heparinized blood in distilled water containing 1% acetic acid (vol/vol).”

MMP-3 [7] = test: MMP-3 levels in sera of (NZB×NZW)F1 mice (Western blot); type: in vivo
Method: as §2

| Sequence | prevention or treatment of SLE induced by human 16/6Id mAb or spontaneous [1] | inhibition of the proliferative responses of PBL to the human 16/6Id mAb (PBL of SLE patients) | T cell priming to the appropriate mCDR peptide or to the whole anti-DNA 16/6Id mAb (T cell priming) | activity of sera comparable to pure active MMP-9 (MMP-9 [2]; MMP-9 activity assay system, preliminary, unimmunized 7 ng/ml, 16/6Id immunized 16 ng/ml) [ng/mL] | MMP-9 activity in sera (MMP-9 [2]; prevention and treatment protocols, 100 μg/mouse, FIG. 21B) | MMP-9 activity in the serum (MMP-9 [3]; prevention protocol: 250 μg/mouse s.c. weekly for 10 weeks from age 2 months, FIG. 20B) | activity of MMP-9 in the sera (MMP-9 [3]; treatment of sick mice, FIG. 20B right) | levels of MMP-3 in sera (MMP-3 [4]) | expression levels of MMP-9 in the kidneys (MMP-9 [5]) | expression levels of MMP-3 in the kidneys (MMP-3 [6]) | two lower bands of MMP-3 in the serum (MMP-3 [7]; prevention protocol: 250 μg/mouse s.c. weekly for 10 weeks from age 2 months, FIG. 20A) | levels of MMP-3 in the sera (MMP-3 [7]; treatment of sick mice, FIG. 20A right) |
| --- | --- | --- | --- | --- | --- | --- | --- | --- | --- | --- | --- | --- |
| YYCARFLWEPYAMDYWGQGS (Murine) [mCDR3, murine peptide based on CDR3 of the VH chain of murine mAb 5G12] | either prevent or treat an already established SLE | did not inhibit | inhibiting T cell priming | – | – | – | – | – | – | – | – | – |
| TGYYMQWVKQSPEKSLEWIG [mCDR1] | either prevent or treat an already established SLE | – | inhibiting T cell priming | 8.5 | could down regulate | reduction | specifically down-regulated | could down regulate | down-regulated | down-regulated | reduction | specifically down-regulated |

From patent US7858738B2, “Synthetic human peptides and pharmaceutical compositions comprising them for the treatment of systemic lupus erythematosus” (Yeda Research and Development Co., Ltd., priority 2001, dated 2010)
